Measured values: PubChem BioAssay (NCI)
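48-hour exposure; five concentrations; linearly interpolated endpoints. TGI: total growth inhibition.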

Assays:
Test in all cases: DTP human tumour cell line panel, 48 h
RXF 393 renal = test system: RXF 393 renal
SN12C renal = test system: SN12C renal
SW-620 colon = test system: SW-620 colon
RPMI-8226 leukemia = test system: RPMI-8226 leukemia
NCI-H23 lung = test system: NCI-H23 lung
KM12 colon = test system: KM12 colon
HS 578T breast = test system: HS 578T breast
SF-268 CNS = test system: SF-268 CNS
MDA-MB-435 = test system: MDA-MB-435
DU-145 prostate = test system: DU-145 prostate
COLO 205 colon = test system: COLO 205 colon
NCI-H226 lung = test system: NCI-H226 lung
SK-MEL-5 melanoma = test system: SK-MEL-5 melanoma
OVCAR-3 ovarian = test system: OVCAR-3 ovarian
HCT-15 colon = test system: HCT-15 colon
SF-539 CNS = test system: SF-539 CNS
LOX IMVI melanoma = test system: LOX IMVI melanoma
SK-OV-3 ovarian = test system: SK-OV-3 ovarian
SK-MEL-2 melanoma = test system: SK-MEL-2 melanoma
BT-549 breast = test system: BT-549 breast

Row | Structure (SMILES) | TGI (RXF 393 renal) [µM] | TGI (SN12C renal) [µM] | TGI (SW-620 colon) [µM] | TGI (RPMI-8226 leukemia) [µM] | TGI (NCI-H23 lung) [µM] | TGI (KM12 colon) [µM] | TGI (HS 578T breast) [µM] | TGI (SF-268 CNS) [µM] | TGI (MDA-MB-435) [µM] | TGI (DU-145 prostate) [µM] | TGI (COLO 205 colon) [µM] | TGI (NCI-H226 lung) [µM] | TGI (SK-MEL-5 melanoma) [µM] | TGI (OVCAR-3 ovarian) [µM] | TGI (HCT-15 colon) [µM] | TGI (SF-539 CNS) [µM] | TGI (LOX IMVI melanoma) [µM] | TGI (SK-OV-3 ovarian) [µM] | TGI (SK-MEL-2 melanoma) [µM] | TGI (BT-549 breast) [µM]
1 | COc1cc2c(c(OC)c1OC)C(=O)[C@@H](O)[C@H]2NC(N)=O | > 100 | > 100 | > 100 | > 100 | > 100 | > 100 | > 100 | > 100 | > 100 | > 100 | > 100 | > 100 | > 100 | > 100 | > 100 | > 100 | > 100 |  |  | 
2 | O=C(O/N=c1/ccc(=O)/c(=N\OC(=O)c2ccccc2)c1=O)c1ccccc1 | > 100 | > 100 | > 100 | > 100 | > 100 | > 100 | > 100 | > 100 | > 100 |  | > 100 | > 100 | > 100 | > 100 | > 100 | > 100 | > 100 | > 100 |  | 
3 | COc1ccc(/C=C2\Sc3nnc(-c4ccccc4)n3N=C2c2cc(F)c(Cl)cc2Cl)cc1OC | 54.4 |  | 92 | > 100 | > 100 | > 100 | > 100 | > 100 | > 100 | > 100 |  | > 100 | > 100 | > 100 | > 100 | > 100 | > 100 | > 100 | > 100 | 
4 | O=C(Cn1c2c(c3ccccc31)CCCC2)N1CCCCC1 |  | > 100 | > 100 | > 100 | > 100 |  | > 100 |  | > 100 |  | > 100 |  | > 100 | > 100 | > 100 | > 100 | > 100 | > 100 | > 100 | > 100
5 | CCOC(=O)C1=C(O)C(=O)c2ccoc2C1=O | > 100 | > 100 | > 100 | > 100 | > 100 | > 100 |  | > 100 |  |  | > 100 | > 100 | > 100 | > 100 | > 100 | > 100 | > 100 | > 100 | > 100 | 
6 | COC1(OC)N=C(N)C2(C#N)C(C)=C3NCN(C)N=C3C12C#N (stereo not given) | > 100 | > 100 | > 100 | > 100 | > 100 | > 100 | > 100 | > 100 | > 100 | > 100 | > 100 | > 100 | > 100 | > 100 | > 100 | > 100 | > 100 | > 100 | > 100 | 
7 | O=c1[nH]nc(-c2ccccc2)n1-c1cccc([N+](=O)[O-])c1 | > 100 | > 100 | > 100 | > 100 | > 100 | > 100 | > 100 | > 100 | > 100 | > 100 | > 100 | > 100 | > 100 | > 100 | > 100 | > 100 | > 100 | > 100 | > 100 | 
